Experimental data from US11008317B2, “Triazolopyridine inhibitors of myeloperoxidase and/or EPX” (priority 2016, dated 2021).

Key:
myeloperoxidase [1] = biological target: T1, myeloperoxidase (Homo sapiens, UniProt P05164); test: MPO Chlorination Assay (APF Assay); format: biochemical; conditions: potency range class, read-out: APF Assay IC50 value
T1 sequence (P05164 49-745): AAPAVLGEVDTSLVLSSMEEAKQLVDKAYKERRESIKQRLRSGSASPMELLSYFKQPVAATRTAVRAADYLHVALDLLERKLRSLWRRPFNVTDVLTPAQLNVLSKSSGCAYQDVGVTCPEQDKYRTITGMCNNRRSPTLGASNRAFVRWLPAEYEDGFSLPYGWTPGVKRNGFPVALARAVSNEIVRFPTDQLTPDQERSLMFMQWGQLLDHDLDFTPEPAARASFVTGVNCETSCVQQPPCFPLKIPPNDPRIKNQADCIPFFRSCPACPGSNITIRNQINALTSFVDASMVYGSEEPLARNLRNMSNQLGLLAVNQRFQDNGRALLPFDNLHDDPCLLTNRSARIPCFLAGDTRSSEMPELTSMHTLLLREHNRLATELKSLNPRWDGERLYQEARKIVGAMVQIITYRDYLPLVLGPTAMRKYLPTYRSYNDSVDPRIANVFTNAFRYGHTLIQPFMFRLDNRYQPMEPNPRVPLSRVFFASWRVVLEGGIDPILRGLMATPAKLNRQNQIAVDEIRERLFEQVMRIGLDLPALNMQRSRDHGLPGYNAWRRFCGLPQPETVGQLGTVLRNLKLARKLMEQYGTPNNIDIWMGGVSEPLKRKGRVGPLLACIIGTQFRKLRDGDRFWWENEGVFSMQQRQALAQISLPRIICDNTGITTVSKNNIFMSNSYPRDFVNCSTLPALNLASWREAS

myeloperoxidase [2] = biological target: T1, myeloperoxidase; test: MPO Peroxidation Assay (Amplex Red Assay); format: biochemical; conditions: potency range class, read-out: Amplex Red Assay IC50 value

Row | SMILES | IC50 (myeloperoxidase [1]) | IC50 (myeloperoxidase [2])
1 | Nc1cc(C(CCN2CCC(c3ccccc3)CC2)c2ccccc2)c2nn[nH]c2n1 (stereo not shown) [Example 186, 7-[1-phenyl-3-(4-phenylpiperidin-1-yl)propyl]-3H-[1,2,3] triazolo[4,5-b] pyridin-5-amine] | 101 to 999 nM | 1000 to 10000 nM
2 | COCCN(CC[C@H](c1ccccc1)c1cc(N)nc2[nH]nnc12)C12CCC(c3ccccc3)(CC1)CC2 [Example 196, 7-[(1R)-3-[(2-methoxyethyl)({4-phenylbicyclo[2.2.2]octan-1-yl})amino]-1-phenylpropyl]-3H-[1,2,3]triazolo[4,5-b]pyridin-5-amine] | 1 to 100 nM | 101 to 999 nM
3 | Nc1cc([C@H](CCN(CC(F)F)C23CCC(c4ccccc4)(CC2)CC3)c2ccccc2)c2nn[nH]c2n1 [Example 197, 7-[(1R)-3-[(2,2-difluoroethyl)({4-phenylbicyclo[2.2.2]octan-1-yl})amino]-1-phenylpropyl]-3H-[1,2,3]triazolo[4,5-b]pyridin-5-amine] | 1 to 100 nM | 101 to 999 nM
4 | Nc1cc([C@H](CCN(CC(O)C(F)(F)F)C23CCC(c4ccccc4)(CC2)CC3)c2ccccc2)c2nn[nH]c2n1 (stereo partly drawn) [Example 198, 3-{[(3R)-3-{5-amino-3H-[1,2,3]triazolo [4,5-b]pyridin-7-yl}-3-phenylpropyl]({4-phenylbicyclo[2.2.2]octan-1-yl})amino}-1,1,1-trifluoropropan-2-ol] | 1 to 100 nM | 1 to 100 nM
5 | Nc1cc([C@H](CC(=O)NC23CCC(c4ccccc4)(CC2)CC3)c2ccccc2)c2nn[nH]c2n1 [Example 200, (R)-3-(5-amino-3H-[1,2,3]triazolo[4,5-b]pyridin-7-yl)-3-phenyl-N-(4-phenylbicyclo[2.2.2]octan-1-yl)propanamide] | 1 to 100 nM | 101 to 999 nM
6 | Nc1cc([C@H](CC(=O)NC23CCC(c4ccccc4)(CC2)C(O)C3)c2ccccc2)c2nn[nH]c2n1 (stereo partly drawn) [Example 201, (3R)-3-{5-amino-3H-[1,2,3]triazolo[4,5-b]pyridin-7-yl}-N-{3-hydroxy-4-phenylbicyclo [2.2.2]octan-1-yl}-3-phenylpropanamide] | 1 to 100 nM | 101 to 999 nM
7 | Nc1cc([C@H](CC(=O)NC23CCC(c4ccccc4)(CC2)CC3)c2cccc(O)c2)c2nn[nH]c2n1 [Example 202, (3R)-3-{5-amino-3H-[1,2,3]triazolo[4,5-b]pyridin-7-yl}-3-(3-hydroxyphenyl)-N-{4-phenylbicyclo [2.2.2]octan-1-yl} propanamide] | 1 to 100 nM | 101 to 999 nM
8 | Nc1cc([C@H](CC(=O)NC2CCC(c3ccccc3)c3ccccc32)c2ccccc2)c2nn[nH]c2n1 (stereo partly drawn) [Example 203, (3R)-3-{5-amino-3H-[1,2,3]triazolo[4,5-b]pyridin-7-yl}-3-phenyl-N-(4-phenyl-1,2,3,4-tetrahydronaphthalen-1-yl)propanamide] | 101 to 999 nM | 1000 to 10000 nM
9 | Nc1cc(C(CCCN2CC(c3ccc(F)cc3)c3ccccc32)c2ccccc2)c2nn[nH]c2n1 (stereo not shown) [Example 205, 7-{4-[3-(4-fluorophenyl)-2,3-dihydro-1H-indol-1-yl]-1-phenylbutyl}-3H-[1,2,3]triazolo [4,5-b]pyridin-5-amine] | 1000 to 10000 nM | 1000 to 10000 nM
10 | Nc1cc(C(CCCN2CCC(c3ccccc3)c3ccccc32)c2ccccc2)c2nn[nH]c2n1 (stereo not shown) [Example 206, 7-[1-phenyl-4-(4-phenyl-1,2,3,4-tetrahydroquinolin-1-yl)butyl]-3H-[1,2,3]triazolo [4,5-b]pyridin-5-amine] | 1 to 100 nM | 1000 to 10000 nM
11 | Nc1cc(C(CCCN2CCC(O)(c3ccccc3)CC2)c2ccccc2)c2nn[nH]c2n1 (stereo not shown) [Example 207, 1-(4-{5-amino-3H-[1,2,3]triazolo [4,5-b]pyridin-7-yl}-4-phenylbutyl)-4-phenylpiperidin-4-ol] | 1 to 100 nM | 101 to 999 nM
12 | Nc1cc(C(CCCN[C@H]2CC[C@H](c3ccccc3)CC2)c2ccccc2)c2nn[nH]c2n1 (stereo partly drawn) [Example 208, 7-(1-phenyl-4-{[(trans)-4-phenylcyclohexyl]amino}butyl)-3H-[1,2,3]triazolo [4,5-b]pyridin-5-amine] | 101 to 999 nM | 1000 to 10000 nM
13 | Nc1cc(C(CCCN2CCC(c3ccccc3)C2)c2ccccc2)c2nn[nH]c2n1 (stereo not shown) [Example 209, 7-[1-phenyl-4-(3-phenylpyrrolidin-1-yl)butyl]-3H-[1,2,3]triazolo [4,5-b]pyridin-5-amine] | 101 to 999 nM | 101 to 999 nM

Second part, the compound after the results:

Row | IC50 (myeloperoxidase [1]) | IC50 (myeloperoxidase [2]) | SMILES
14 | 1 to 100 nM | 101 to 999 nM | N#CC1(c2ccccc2)CCC(NCCC(c2ccccc2)c2cc(N)nc3[nH]nnc23)CC1 (stereo not shown) [Example 177, 4-((3-(5-amino-3H-[1,2,3]triazolo[4,5-b]pyridin-7-yl)-3-phenylpropyl)amino)-1-phenylcyclohexane-1-carbonitrile]
15 | 1 to 100 nM | 101 to 999 nM | Nc1cc(C(CCN[C@@H]2CC[C@@H](c3ccccc3)C[C@@H]2CO)c2ccccc2)c2nn[nH]c2n1 (stereo partly drawn) [Example 180, [(1S,2R,5R)-2-[(3-{5-amino-3H-[1,2,3]triazolo[4,5-b]pyridin-7-yl}-3-phenylpropyl)amino]-5-phenylcyclohexyl] methanol]
16 | 1 to 100 nM | 101 to 999 nM | Nc1cc([C@H](CCNC23CCC(c4ccccc4)(CC2)C(=O)C3)c2ccccc2)c2nn[nH]c2n1 [Example 182, 4-{[(3R)-3-{5-amino-3H-[1,2,3]triazolo [4,5-b]pyridin-7-yl}-3-phenylpropyl]amino}-1-phenylbicyclo [2.2.2]octan-2-one]
17 | 1 to 100 nM | 1000 to 10000 nM | Nc1cc([C@H](CCNC2CC[C@H](c3ccccc3)[C@@H](O)C2)c2ccccc2)c2nn[nH]c2n1 (stereo partly drawn) [Example 183, (1S,2R)-5-{[(3R)-3-{5-amino-3H-[1,2,3]triazolo [4,5-b]pyridin-7-yl}-3-phenylpropyl]amino}-2-phenylcyclohexan-1-ol]
18 | 1 to 100 nM | 101 to 999 nM | Nc1cc([C@H](CCNC2CC[C@H](c3ccccc3)[C@@H](O)C2)c2ccccc2)c2nn[nH]c2n1 (stereo partly drawn) [Example 184, (1S,2R)-5-{[(3R)-3-{5-amino-3H-[1,2,3]triazolo[4,5-b]pyridin-7-yl}-3-phenylpropyl]amino}-2-phenylcyclohexan-1-ol]
19 | 1 to 100 nM | 1000 to 10000 nM | Nc1cc([C@H](CCN2CCC(O)(Cc3ccccc3)CC2)c2ccccc2)c2nn[nH]c2n1 [Example 185, 1-[(3R)-3-{5-amino-3H-[1,2,3]triazolo [4,5-b]pyridin-7-yl}-3-phenylpropyl]-4-benzylpiperidin-4-ol]
20 | 1 to 100 nM | 1000 to 10000 nM | Nc1cc(C(CCN2CCC(Cc3ccccc3)CC2)c2ccccc2)c2nn[nH]c2n1 (stereo not shown) [Example 187, 7-[3-(4-benzylpiperidin-1-yl)-1-phenylpropyl]-3H-[1,2,3]triazolo [4,5-b]pyridin-5-amine]
21 | 1 to 100 nM | 101 to 999 nM | Nc1cc(C(CCNC2CCc3ccccc3C2)c2ccccc2)c2nn[nH]c2n1 (stereo not shown) [Example 188, 7-{1-phenyl-3-[(1,2,3,4-tetrahydronaphthalen-2-yl)amino]propyl}-3H-[1,2,3]triazolo [4,5-b]pyridin-5-amine]
22 | 1 to 100 nM | 101 to 999 nM | NC(=O)CN(CC[C@H](c1ccccc1)c1cc(N)nc2[nH]nnc12)C12CCC(c3ccccc3)(CC1)CC2 [Example 190, (R)-2-((3-(5-amino-3H-[1,2,3]triazolo[4,5-b]pyridin-7-yl)-3-phenylpropyl)(4-phenylbicyclo[2.2.2]octan-1-yl)amino)acetamide]
23 | 1 to 100 nM | 101 to 999 nM | CNC(=O)CN(CC[C@H](c1ccccc1)c1cc(N)nc2[nH]nnc12)C12CCC(c3ccccc3)(CC1)CC2 [Example 191, 2-{[(3R)-3-{5-amino-3H-[1,2,3]triazolo [4,5-b]pyridin-7-yl}-3-phenylpropyl]({4-phenylbicyclo[2.2.2]octan-1-yl})amino}-N-methylacetamide]
24 | 1 to 100 nM | 1000 to 10000 nM | CN(C)C(=O)CN(CC[C@H](c1ccccc1)c1cc(N)nc2[nH]nnc12)C12CCC(c3ccccc3)(CC1)CC2 [Example 192, 2-{[(3R)-3-{5-amino-3H-[1,2,3]triazolo [4,5-b]pyridin-7-yl}-3-phenylpropyl]({4-phenylbicyclo[2.2.2]octan-1-yl})amino}-N,N-dimethylacetamide]
25 | 1 to 100 nM | 1 to 100 nM | Nc1cc([C@H](CCN(CC2CCO2)C23CCC(c4ccccc4)(CC2)CC3)c2ccccc2)c2nn[nH]c2n1 (stereo partly drawn) [Example 193, 7-[(1R)-3-{[(oxetan-2-yl)methyl]({4-phenylbicyclo [2.2.2]octan-1-yl})amino}-1-phenylpropyl]-3H-[1,2,3]triazolo[4,5-b]pyridin-5-amine]
26 | 1 to 100 nM | 101 to 999 nM | Nc1cc([C@H](CCN(CC2CCCO2)C23CCC(c4ccccc4)(CC2)CC3)c2ccccc2)c2nn[nH]c2n1 (stereo partly drawn) [Example 195, 7-[(1R)-3-{[(oxolan-2-yl)methyl]({4-phenylbicyclo [2.2.2]octan-1-yl})amino}-1-phenylpropyl]-3H-[1,2,3]triazolo[4,5-b]pyridin-5-amine]
